Bridge positions count the residues as written; N and C are the ends. Square brackets hold non-standard residues; d marks the D form. Peptide text beside a SMILES is read from it. * marks the point of attachment. Phe(4-COOH) = N[C@@H](Cc1ccc(C(=O)O)cc1)C(=O)O; Bip = N[C@@H](Cc1ccc(-c2ccccc2)cc1)C(=O)O; Phe(3-Me) = Cc1cccc(C[C@H](N)C(=O)O)c1; 4Pal = N[C@@H](Cc1ccncc1)C(=O)O; Cha = N[C@@H](CC1CCCCC1)C(=O)O; Carboxymethyl = O=C(O)C*; Orn = NCCC[C@H](N)C(=O)O; Aun = NCCCCCCCCCCC(=O)O; Dab = NCC[C@H](N)C(=O)O; Dap = NC[C@H](N)C(=O)O; AEEA = NCCOCCOCC(=O)O

The test deals with T1, PD-1/PD-L1 interaction (PE-labeled human PD-L1-Ig binding to Jurkat cell line over-expressing human PD-1) (Homo sapiens, UniProt Q15116).
T1 construct: expressed in transfected cells; host or cells: Jurkat
T1 sequence (Q15116 25-288): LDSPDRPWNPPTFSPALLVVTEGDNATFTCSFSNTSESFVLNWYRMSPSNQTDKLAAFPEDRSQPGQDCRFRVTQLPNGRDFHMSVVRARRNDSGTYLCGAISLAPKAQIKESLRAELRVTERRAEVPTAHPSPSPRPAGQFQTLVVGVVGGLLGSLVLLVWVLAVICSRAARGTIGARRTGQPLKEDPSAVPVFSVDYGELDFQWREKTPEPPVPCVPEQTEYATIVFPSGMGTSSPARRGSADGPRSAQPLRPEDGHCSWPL
Put plainly: Jurkat-PD-1 Cell Binding High-Content Screening Assay (CBA). In kind it is cell-based. The conditions noted are these: Jurkat cell line over-expressing human PD-1; PE-labeled PD-L1-Ig 20 nM final; read-out: Jurkat hPD1-PDL1 IC50. The method in brief: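 Jurkat-hPD-1 cells, DMEM/10% FCS; cpd 2 h 37° C; PE-PD-L1-Ig 20 nM final, 1 h; 4% PFA fix + Hoechst 33342, 3× dPBS wash; high-content imaging read-out.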
On to `Cc1cccc(C[C@@H]2NC(=O)[C@H](CC(=O)O)NC(=O)[C@H](Cc3ccc(OCC(=O)O)cc3)NC(=O)[C@H](CCCNC(=N)N)NC(=O)CSC[C@@H](C(=O)N[C@@H](CCCCN)C(=O)NCCCCCCCCCCC(=O)O)NC(=O)[C@H](CCCN)NC(=O)[C@H](C(C)C)NC(=O)[C@H](CC3CCCCC3)NC(=O)[C@H](CCN)NC(=O)[C@@H](CC(C)C)NC(=O)[C@H](CCCN)NC(=O)[C@H](C(C)C)NC(=O)[C@H](Cc3ccc(-c4ccccc4)cc3)NC(=O)[C@H](C(C)C)NC2=O)c1` [Compound 3219] ({CH2CO}-RY(Carboxymethyl)D[Phe(3-Me)]V[Bip]V[Orn][dL][Dab][Cha]V[Orn]CK[Aun]-OH; thioether N-14), for which the IC50 (commonly the point on the concentration scale where inhibition reaches its midpoint) came out at 9.6 nM.

Turning to `Cc1cccc(C[C@@H]2NC(=O)[C@H](CC(=O)O)NC(=O)[C@H](Cc3ccc(OCC(=O)O)cc3)NC(=O)[C@H](CCCNC(=N)N)NC(=O)CSC[C@@H](C(=O)NCCOCCOCC(=O)N[C@@H](CCN)C(=O)NCCCCCCCCCCC(=O)O)NC(=O)[C@H](CN)NC(=O)[C@H](C(C)C)NC(=O)[C@H](CC3CCCCC3)NC(=O)[C@H](CCN)NC(=O)[C@@H](CC(C)C)NC(=O)[C@H](CCCN)NC(=O)[C@H](C(C)C)NC(=O)[C@H](Cc3ccc(-c4ccccc4)cc3)NC(=O)[C@H](C(C)C)NC2=O)c1` [Compound 3220] ({CH2CO}-RY(Carboxymethyl)D[Phe(3-Me)]V[Bip]V[Orn][dL][Dab][Cha]V[Dap]C[AEEA][Dab][Aun]-OH; thioether N-14), the half-inhibitory concentration (IC50) came out at 11.5 nM.

Turning to `CC(C)C[C@H]1NC(=O)[C@H](CCCN)NC(=O)[C@H](C(C)C)NC(=O)[C@H](Cc2ccc(-c3ccccc3)cc2)NC(=O)[C@H](C(C)C)NC(=O)[C@H](Cc2c[nH]c3ccccc23)NC(=O)[C@H](CC(=O)O)NC(=O)[C@H](Cc2ccc(C(=O)O)cc2)NC(=O)[C@H](Cc2ccc(OCC(=O)O)cc2)NC(=O)CSC[C@@H](C(=O)NCC(=O)NCCOCCOCC(=O)N[C@@H](CCCN)C(=O)NCCCCCCCCCCC(=O)O)NC(=O)[C@H](CCCN)NC(=O)[C@H](C(C)C)NC(=O)[C@H](CC2CCCCC2)NC(=O)[C@H](CCN)NC1=O` [Compound 3228] ({CH2CO}-Y(Carboxymethyl)[Phe(4-COOH)]DWV[Bip]V[Orn][dL][Dab][Cha]V[Orn]CG[AEEA][Orn][Aun]-OH; thioether N-14), the IC50 was found to be 9.8 nM.

For the compound `CC(C)C[C@H]1NC(=O)[C@H](CCCN)NC(=O)[C@H](C(C)C)NC(=O)[C@H](Cc2ccc(-c3ccccc3)cc2)NC(=O)[C@H](C(C)C)NC(=O)[C@H](Cc2c[nH]c3ccccc23)NC(=O)[C@H](CC(=O)O)NC(=O)[C@H](Cc2ccc(OCC(=O)O)cc2)NC(=O)[C@H](Cc2ccc(OCC(=O)O)cc2)NC(=O)CSC[C@@H](C(=O)NCC(=O)NCCOCCOCC(=O)N[C@@H](CCCN)C(=O)NCCCCCCCCCCC(=O)O)NC(=O)[C@H](CCCN)NC(=O)[C@H](C(C)C)NC(=O)[C@H](CC2CCCCC2)NC(=O)[C@H](CCN)NC1=O` [Compound 3229] ({CH2CO}-Y(Carboxymethyl)Y(Carboxymethyl)DWV[Bip]V[Orn][dL][Dab][Cha]V[Orn]CG[AEEA][Orn][Aun]-OH; thioether N-14), the IC50 was determined as 6.9 nM.

As for `CC(C)C[C@H]1NC(=O)[C@H](CCCN)NC(=O)[C@H](C(C)C)NC(=O)[C@H](Cc2ccc(-c3ccccc3)cc2)NC(=O)[C@H](C(C)C)NC(=O)[C@H](Cc2c[nH]c3ccccc23)NC(=O)[C@H](CC(=O)O)NC(=O)[C@H](Cc2ccc(OCC(=O)O)cc2)NC(=O)[C@H](CCCNC(=N)N)NC(=O)CSC[C@@H](C(=O)NCC(=O)NCCOCCOCC(=O)N[C@@H](CCCN)C(=O)NCCCCCCCCCCC(=O)O)NC(=O)[C@H](CO)NC(=O)[C@H](C(C)C)NC(=O)[C@H](CC2CCCCC2)NC(=O)[C@H](CCN)NC1=O` [Compound 3230] ({CH2CO}-RY(Carboxymethyl)DWV[Bip]V[Orn][dL][Dab][Cha]VSCG[AEEA][Orn][Aun]-OH; thioether N-14), the IC50 amounted to 8.9 nM.

Regarding `CC(C)C[C@H]1NC(=O)[C@H](CCCN)NC(=O)[C@H](C(C)C)NC(=O)[C@H](Cc2ccc(-c3ccccc3)cc2)NC(=O)[C@H](C(C)C)NC(=O)[C@H](Cc2c[nH]c3ccccc23)NC(=O)[C@H](CC(=O)O)NC(=O)[C@H](Cc2ccc(C(=O)O)cc2)NC(=O)[C@H](CCCNC(=N)N)NC(=O)CSC[C@@H](C(=O)NCC(=O)NCCOCCOCC(=O)N[C@@H](CCCN)C(=O)NCCCCCCCCCCC(=O)O)NC(=O)[C@H](CO)NC(=O)[C@H](C(C)C)NC(=O)[C@H](CC2CCCCC2)NC(=O)[C@H](CCN)NC1=O` [Compound 3231] ({CH2CO}-R[Phe(4-COOH)]DWV[Bip]V[Orn][dL][Dab][Cha]VSCG[AEEA][Orn][Aun]-OH; thioether N-14), the IC50 worked out at 7.7 nM.

For `CC(C)C[C@H]1NC(=O)[C@H](CCCN)NC(=O)[C@H](C(C)C)NC(=O)[C@H](Cc2ccc(-c3ccccc3)cc2)NC(=O)[C@H](C(C)C)NC(=O)[C@H](Cc2c[nH]c3ccccc23)NC(=O)[C@H](CC(=O)O)NC(=O)[C@H](Cc2ccncc2)NC(=O)[C@H](Cc2ccc(OCC(=O)O)cc2)NC(=O)CSC[C@@H](C(=O)NCC(=O)NCCOCCOCC(=O)N[C@@H](CCCN)C(=O)NCCCCCCCCCCC(=O)O)NC(=O)[C@H](CN)NC(=O)[C@H](C(C)C)NC(=O)[C@H](CC2CCCCC2)NC(=O)[C@H](CCN)NC1=O` [Compound 3232] ({CH2CO}-Y(Carboxymethyl)[4Pal]DWV[Bip]V[Orn][dL][Dab][Cha]V[Dap]CG[AEEA][Orn][Aun]-OH; thioether N-14), the IC50 was 10.1 nM.

Regarding `CC(C)C[C@H]1NC(=O)[C@H](CCCN)NC(=O)[C@H](C(C)C)NC(=O)[C@H](Cc2ccc(-c3ccccc3)cc2)NC(=O)[C@H](C(C)C)NC(=O)[C@H](Cc2c[nH]c3ccccc23)NC(=O)[C@H](CC(=O)O)NC(=O)[C@H](Cc2ccc(OCC(=O)O)cc2)NC(=O)[C@H](Cc2ccncc2)NC(=O)CSC[C@@H](C(=O)NCC(=O)NCCOCCOCC(=O)N[C@@H](CCCN)C(=O)NCCCCCCCCCCC(=O)O)NC(=O)[C@H](CN)NC(=O)[C@H](C(C)C)NC(=O)[C@H](CC2CCCCC2)NC(=O)[C@H](CCN)NC1=O` [Compound 3233] ({CH2CO}-[4Pal]Y(Carboxymethyl)DWV[Bip]V[Orn][dL][Dab][Cha]V[Dap]CG[AEEA][Orn][Aun]-OH; thioether N-14), the IC50 was 5.5 nM.

Turning to `CC(C)C[C@H]1NC(=O)[C@H](CCCN)NC(=O)[C@H](C(C)C)NC(=O)[C@H](Cc2ccc(-c3ccccc3)cc2)NC(=O)[C@H](C(C)C)NC(=O)[C@H](Cc2c[nH]c3ccccc23)NC(=O)[C@H](CC(=O)O)NC(=O)[C@H](Cc2ccc(C(=O)O)cc2)NC(=O)[C@H](Cc2ccncc2)NC(=O)CSC[C@@H](C(=O)NCC(=O)NCCOCCOCC(=O)N[C@@H](CCCN)C(=O)NCCCCCCCCCCC(=O)O)NC(=O)[C@H](CN)NC(=O)[C@H](C(C)C)NC(=O)[C@H](CC2CCCCC2)NC(=O)[C@H](CCN)NC1=O` [Compound 3234] ({CH2CO}-[4Pal][Phe(4-COOH)]DWV[Bip]V[Orn][dL][Dab][Cha]V[Dap]CG[AEEA][Orn][Aun]-OH; thioether N-14), the IC50 came to 7.3 nM.

(Values after patent publication US20260022142A1, “MACROCYCLIC IMMUNOMODULATORS” (Bristol-Myers Squibb Company, priority 2022, published 2026).)
